≈ marks a conversion by molar mass, not a printed value. Where two headings read alike, the source gives them in different places. Starred links: 1 amine or outer side, 2 acyl side, 3 side chain; linkers in the order of their positions; H or OH if unused. Positions of bridges follow the written chain, without caps; N, C: chain ends. Residues, ends and D or L forms follow the SMILES beside them. *: point of attachment. C20 diacid = O=C(O)CCCCCCCCCCCCCCCCCCC(=O)*; C18 diacid = O=C(O)CCCCCCCCCCCCCCCCC(=O)*; γGlu = O=C(O)[C@H](CCC(=O)[*:2])N[*:1]
Experiments:
[1] = molecular target: T1, human amylin receptor (amylin 3(a) receptor: human calcitonin receptor + RAMP-3) (Homo sapiens, UniProt O60896+P30988); test: Assay (II)a functional CRE-luciferase assay, human amylin receptor; assay type: cell-based; settings: Table 2; BHK amylin 3(a)-receptor/CRE-luc cells
T1 construct: expressed in transfected cells; host or cells: BHK570
T1 sequence (P30988 25-474): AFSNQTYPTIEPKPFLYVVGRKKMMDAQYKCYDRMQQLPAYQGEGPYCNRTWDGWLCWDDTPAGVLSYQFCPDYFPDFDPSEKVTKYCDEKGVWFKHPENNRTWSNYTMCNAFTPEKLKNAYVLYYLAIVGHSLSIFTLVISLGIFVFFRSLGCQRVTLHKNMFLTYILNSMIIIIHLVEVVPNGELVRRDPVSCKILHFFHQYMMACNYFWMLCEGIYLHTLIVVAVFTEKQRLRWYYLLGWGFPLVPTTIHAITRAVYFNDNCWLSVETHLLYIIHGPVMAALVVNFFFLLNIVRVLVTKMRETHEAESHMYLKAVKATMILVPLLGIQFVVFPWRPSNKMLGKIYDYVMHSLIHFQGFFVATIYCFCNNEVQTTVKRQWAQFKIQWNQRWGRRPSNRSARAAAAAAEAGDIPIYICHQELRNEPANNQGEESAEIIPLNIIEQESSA
T1 sequence (O60896 24-148 partner): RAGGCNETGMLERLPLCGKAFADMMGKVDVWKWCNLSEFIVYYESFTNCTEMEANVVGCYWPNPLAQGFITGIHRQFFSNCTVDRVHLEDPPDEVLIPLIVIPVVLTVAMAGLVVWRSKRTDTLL

[2] = molecular target: T2, human calcitonin receptor (Homo sapiens, UniProt P30988); test: Assay (II)a functional CRE-luciferase assay, human calcitonin receptor; assay type: cell-based; settings: Table 7; human calcitonin (CTa) receptor
T2 construct: expressed in transfected cells; host or cells: BHK570
T2 sequence (P30988 25-474): T1 sequence (P30988 25-474)

[3] = Assay (III) ThT fibrillation assay for physical stability; assay type: physicochemical; settings: ThT fibrillation assay
How it was run: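 Freshly prepared formulations, pH-adjusted, with 1 μM ThT; four or eight replicates incubated at 37 °C under 960 rpm orbital shaking. Fluorescence (ex 444/em 485 nm) read every 20 min; […]. Peptide concentration measured by RP-HPLC before and after the run.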

[4] = Assay (IV) determination of solubility; assay type: physicochemical
How it was run: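 Polypeptide in water (~500 nmol/ml) mixed 1:1 with 100 mM glycylglycine (pH 3.0–5.0) or bistrispropane (pH 6.0–8.0) buffers. Held 18 hours at room temperature, then centrifuged. Polypeptide remaining in solution quantified by HPLC.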

[5] = bistrispropane buffer, pH 6, pH 6.0, read-out: Solubility pH 6.0
[6] = bistrispropane buffer, pH 6.5, pH 6.5, read-out: Solubility pH 6.5
[7] = bistrispropane buffer, pH 7, pH 7.0, read-out: Solubility pH 7.0
[8] = bistrispropane buffer, pH 7.5, pH 7.5, read-out: Solubility pH 7.5
[9] = bistrispropane buffer, pH 8, pH 8.0, read-out: Solubility pH 8.0
[10] = glycylglycine buffer, pH 3, pH 3.0, read-out: Solubility pH 3.0
[11] = glycylglycine buffer, pH 4, pH 4.0, 18 hours at room temperature, Table 2, read-out: Solubility pH 4.0
[12] = glycylglycine buffer, pH 4, pH 4.0, read-out: Solubility pH 4.0
[13] = glycylglycine buffer, pH 5, pH 5.0, read-out: Solubility pH 5.0

| SMILES | EC50 [1] [nM] | EC50 [2] [nM] | ThT pH 4.0 lag time (h) [3] [h] | solubility at 18 h [4, 5] [µM] | solubility at 18 h [4, 6] [µM] | solubility at 18 h ([4]; bistrispropane buffer, pH 7, pH 7.0, 18 hours at room temperature, Table 3, read-out: Solubility pH 7.0) [µM] | solubility at 18 h [4, 7] [µM] | solubility at 18 h [4, 8] [µM] | solubility at 18 h [4, 9] [µM] | solubility at 18 h [4, 10] [µM] | solubility at 18 h [4, 11] [µM] | solubility at 18 h [4, 12] [µM] | solubility at 18 h [4, 13] [µM] |
| --- | --- | --- | --- | --- | --- | --- | --- | --- | --- | --- | --- | --- | --- |
| CC[C@H](C)[C@H](NC(=O)[C@@H]1CCCN1C(=O)CNC(=O)[C@H](Cc1ccccc1)NC(=O)[C@H](CC(N)=O)NC(=O)[C@H](CC(N)=O)NC(=O)[C@H](CO)NC(=O)[C@H](CO)NC(=O)[C@H](Cc1c[nH]cn1)NC(=O)[C@H](Cc1c[nH]cn1)NC(=O)[C@H](CC(C)C)NC(=O)[C@H](Cc1ccccc1)NC(=O)[C@H](CCC(=O)O)NC(=O)[C@H](C)NC(=O)[C@H](CC(C)C)NC(=O)[C@H](CCCNC(=N)N)NC(=O)[C@H](CCC(N)=O)NC(=O)[C@@H](NC(=O)[C@H](C)NC(=O)[C@@H]1CSSC[C@H](NC(=O)[C@H](CCCCN)NC(=O)[C@H](CCC(=O)O)NC(=O)CC[C@H](NC(=O)CCCCCCCCCCCCCCCCC(=O)O)C(=O)O)C(=O)N[C@@H](CC(N)=O)C(=O)N[C@@H]([C@@H](C)O)C(=O)N[C@@H](C)C(=O)N[C@@H]([C@@H](C)O)C(=O)N1)[C@@H](C)O)C(=O)N[C@@H](CC(C)C)C(=O)N1CCC[C@H]1C(=O)N1CCC[C@H]1C(=O)N[C@H](C(=O)N[C@@H](CC(N)=O)C(=O)N[C@H](C(=O)NCC(=O)N[C@@H](CO)C(=O)N[C@@H](Cc1c[nH]cn1)C(=O)N[C@H](C(=O)N[C@@H](Cc1ccc(O)cc1)C(N)=O)[C@@H](C)O)C(C)C)[C@@H](C)O [Example 60, N-alpha-[(S)-4-Carboxy-4-(17-carboxyheptadecanoylamino)butyryl]-Glu-[Glu14,His17,His35]-pramlintide] ({C18 diacid-γGlu}-EKCNTATCATQRLAEFLHHSSNNFGPILPPTNVGSHTY-NH2; disulfide 3-8) | 0.102 | 0.169 | 10 | > 200 | > 200 | > 200 | > 200 | > 200 | > 200 | > 200 | > 200 | > 200 | > 200 |
| CC[C@H](C)[C@H](NC(=O)[C@@H]1CCCN1C(=O)CNC(=O)[C@H](Cc1ccccc1)NC(=O)[C@H](CC(N)=O)NC(=O)[C@H](CO)NC(=O)[C@H](CO)NC(=O)[C@H](CO)NC(=O)[C@H](Cc1c[nH]cn1)NC(=O)[C@H](Cc1c[nH]cn1)NC(=O)[C@H](CC(C)C)NC(=O)[C@H](Cc1ccccc1)NC(=O)[C@H](CCC(=O)O)NC(=O)[C@H](C)NC(=O)[C@H](CC(C)C)NC(=O)[C@H](CCCNC(=N)N)NC(=O)[C@H](CCC(N)=O)NC(=O)[C@@H](NC(=O)[C@H](C)NC(=O)[C@@H]1CSSC[C@H](NC(=O)[C@H](Cc2c[nH]cn2)NC(=O)[C@H](Cc2c[nH]cn2)NC(=O)[C@H](Cc2c[nH]cn2)NC(=O)CC[C@H](NC(=O)CCCCCCCCCCCCCCCCCCC(=O)O)C(=O)O)C(=O)N[C@@H](CC(N)=O)C(=O)N[C@@H]([C@@H](C)O)C(=O)N[C@@H](C)C(=O)N[C@@H]([C@@H](C)O)C(=O)N1)[C@@H](C)O)C(=O)N[C@@H](CC(C)C)C(=O)N1CCC[C@H]1C(=O)N1CCC[C@H]1C(=O)N[C@H](C(=O)N[C@@H](CC(N)=O)C(=O)N[C@H](C(=O)NCC(=O)N[C@@H](CO)C(=O)N[C@@H](CCC(=O)O)C(=O)N[C@H](C(=O)N[C@@H](Cc1ccc(O)cc1)C(N)=O)[C@@H](C)O)C(C)C)[C@@H](C)O [Example 63, N-alpha-[(S)-4-Carboxy-4-(19-carboxynonadecanoylamino)butyryl]-His-His-[His1,Glu14,His17,Ser21,Glu35]-pramlintide] ({C20 diacid-γGlu}-HHHCNTATCATQRLAEFLHHSSSNFGPILPPTNVGSETY-NH2; disulfide 4-9 (inferred); C-terminus assumed) | 0.558 | 0.632 | 2 | 1 (≈ 4.73 µg/mL) | 2 (≈ 9.45 µg/mL) | – | 75 (≈ 355 µg/mL) | > 200 | > 200 | > 200 | > 200 | > 200 | > 200 |

From US8722849B2, “Polypeptides” (Novo Nordisk A/S, priority 2011, dated 2014)
